This passage reports IC50, EC50 and AC50 results from ChEMBL document CHEMBL1201862, “PubChem BioAssay data set” (2004).

Experiment [1] addresses T1, High affinity choline transporter 1 (Homo sapiens, UniProt Q9GZV3).
T1 sequence (Q9GZV3 whole entry): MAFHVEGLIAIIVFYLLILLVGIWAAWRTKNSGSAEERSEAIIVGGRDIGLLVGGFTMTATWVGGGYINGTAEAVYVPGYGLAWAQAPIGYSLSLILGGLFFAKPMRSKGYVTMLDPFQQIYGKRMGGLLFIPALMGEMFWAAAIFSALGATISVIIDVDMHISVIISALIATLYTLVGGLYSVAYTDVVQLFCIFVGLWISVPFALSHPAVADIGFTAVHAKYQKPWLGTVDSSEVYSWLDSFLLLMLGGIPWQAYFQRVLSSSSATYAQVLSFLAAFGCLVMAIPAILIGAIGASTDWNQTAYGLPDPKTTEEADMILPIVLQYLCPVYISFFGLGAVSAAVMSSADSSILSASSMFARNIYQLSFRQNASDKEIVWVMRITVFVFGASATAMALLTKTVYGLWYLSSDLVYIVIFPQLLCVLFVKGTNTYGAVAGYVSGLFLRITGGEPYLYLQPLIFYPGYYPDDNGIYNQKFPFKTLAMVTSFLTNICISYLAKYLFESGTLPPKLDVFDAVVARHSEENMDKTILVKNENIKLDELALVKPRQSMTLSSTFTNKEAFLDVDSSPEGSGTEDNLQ
Description: human choline transporter blockers, potency – cell-based, 5-point CRC, membrane potential dye, dose response (AID 504840). Format: functional.

Experiment [2] concerns the target T2, Short transient receptor potential channel 4 (Mus musculus, UniProt Q9QUQ5).
T2 sequence (Q9QUQ5 whole entry): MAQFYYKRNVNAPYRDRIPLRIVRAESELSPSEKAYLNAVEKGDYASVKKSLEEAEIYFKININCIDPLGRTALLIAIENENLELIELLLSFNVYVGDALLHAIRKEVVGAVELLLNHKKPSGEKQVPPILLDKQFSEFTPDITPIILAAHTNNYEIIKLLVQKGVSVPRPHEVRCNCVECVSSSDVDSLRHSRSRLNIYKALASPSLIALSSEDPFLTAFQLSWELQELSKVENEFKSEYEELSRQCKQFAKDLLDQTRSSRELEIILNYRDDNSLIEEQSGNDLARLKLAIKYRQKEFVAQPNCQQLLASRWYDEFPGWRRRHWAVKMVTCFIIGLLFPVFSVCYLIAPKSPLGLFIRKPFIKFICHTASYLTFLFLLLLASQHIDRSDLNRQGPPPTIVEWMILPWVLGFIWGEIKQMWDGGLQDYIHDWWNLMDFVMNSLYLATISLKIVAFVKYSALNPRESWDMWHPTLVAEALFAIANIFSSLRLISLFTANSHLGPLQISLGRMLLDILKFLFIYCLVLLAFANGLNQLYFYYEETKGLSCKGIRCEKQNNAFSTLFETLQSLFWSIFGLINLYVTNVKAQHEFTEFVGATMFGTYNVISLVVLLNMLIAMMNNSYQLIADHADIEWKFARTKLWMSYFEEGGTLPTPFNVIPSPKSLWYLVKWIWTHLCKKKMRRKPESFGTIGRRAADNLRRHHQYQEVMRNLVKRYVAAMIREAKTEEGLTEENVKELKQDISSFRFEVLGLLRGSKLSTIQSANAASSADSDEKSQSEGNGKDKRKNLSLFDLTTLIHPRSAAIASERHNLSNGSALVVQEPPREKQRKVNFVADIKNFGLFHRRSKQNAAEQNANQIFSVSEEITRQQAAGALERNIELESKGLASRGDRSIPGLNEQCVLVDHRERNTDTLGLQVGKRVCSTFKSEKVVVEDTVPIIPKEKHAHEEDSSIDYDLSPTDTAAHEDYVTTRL
Description: calcium entry via TRPC4 opening agents – cell-based, HEK293 TRPC4/mu-opioid, Fluo-4 calcium, dose response (AID 434937). Format: functional.

Experiment [3] concerns the target Mucolipin-3 (Homo sapiens, UniProt Q8TDD5). Description: Dose response cell-based high-throughput screening assay for agonists of the transient receptor potential channel ML3 (TRPML3). [Related pubchem assays: 1526, 1424, 1448 ]. It is filed as functional.
Experiment [4] has as its target T3, Corticotropin-releasing factor receptor 2/Corticotropin-releasing factor-binding protein (Homo sapiens, UniProt P24387+Q13324).
T3 sequence (Q13324 whole entry): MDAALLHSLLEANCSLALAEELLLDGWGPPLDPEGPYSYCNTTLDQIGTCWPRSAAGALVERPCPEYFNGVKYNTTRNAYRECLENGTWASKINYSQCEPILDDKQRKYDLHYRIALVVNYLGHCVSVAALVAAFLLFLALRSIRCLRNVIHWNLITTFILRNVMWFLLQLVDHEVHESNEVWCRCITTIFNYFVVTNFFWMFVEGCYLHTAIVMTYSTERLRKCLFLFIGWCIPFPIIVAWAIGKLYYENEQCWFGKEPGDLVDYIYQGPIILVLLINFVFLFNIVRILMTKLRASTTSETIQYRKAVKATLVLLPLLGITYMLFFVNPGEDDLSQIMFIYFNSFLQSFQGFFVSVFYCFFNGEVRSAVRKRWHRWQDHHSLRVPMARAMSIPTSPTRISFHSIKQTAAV
T3 sequence (P24387 whole entry): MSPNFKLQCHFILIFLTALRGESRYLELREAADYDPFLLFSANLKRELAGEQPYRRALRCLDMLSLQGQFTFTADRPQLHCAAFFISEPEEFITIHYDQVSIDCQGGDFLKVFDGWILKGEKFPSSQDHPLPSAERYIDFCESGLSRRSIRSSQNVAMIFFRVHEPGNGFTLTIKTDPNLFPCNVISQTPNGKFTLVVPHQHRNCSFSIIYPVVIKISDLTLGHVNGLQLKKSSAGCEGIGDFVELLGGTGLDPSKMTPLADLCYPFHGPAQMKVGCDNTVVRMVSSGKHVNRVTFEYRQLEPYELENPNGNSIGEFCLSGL
Description: activators of CRF receptor 2 with binding protein – uHTS hits, confirmation (AID 602473). Format: functional. Conditions: read-out: EC50_Mean.

The target in experiment [5] is Ion channel NompC (Danio rerio, UniProt Q7T1G6). As to the kind of experiment: Fluorescence counterscreen assay for TRPML3 agonists: dose response cell-based high-throughput screening assay to identify agonists of the transient receptor potential channel N1 (TRPN1). [Related pubchem assays: 1526, 1424, 1448 ]. It is filed as functional.
The nature of experiment [6]: CCR5-tropic HIV-1 fusion blockers – cell-based, CCR5-tropic Env, dose response (AID 2279). Format: functional.
A short description of experiment [7]: viability of HCT116 lacking mutant beta-catenin – cell-based, human colon tumor, dose response (AID 1045).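 Also: HCT116 colon tumor cells with beta catenin knocked out; cells exposed to compound for 60 hours.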 It is filed as functional.
Experiment [8] can be described thus: viability of PTEN-deleted HCT116 cells – cell-based, HCT116 PTEN knockout, dose response (AID 1047).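 Also: HCT116 colon tumor cells with PTEN knocked out; cells exposed to compound for 60 hours before readout; potency for loss of cell viability measured by luminescence.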 It is filed as functional.
A short description of experiment [9]: Luminescence Cell-Based Dose Retest to Confirm Inhibitors of Cancer Stem Cells. [Related pubchem assays (depositor defined):AID2717, AID2721]. It is filed as functional. Particulars: Homo sapiens.
Experiment [10] deals with Sphingosine 1-phosphate receptor 2 (Homo sapiens, UniProt O95136). As to the kind of experiment: Dose Response Cell Based Assay for Agonists of the S1P2 Receptor of Purchased Analogues. [Related pubchem assays: 729, 843, 854, 736 ]. It is filed as functional.
The target in experiment [11] is Epstein-Barr nuclear antigen 1 (Epstein-Barr virus (strain B95-8) (HHV-4) (Human herpesvirus 4), UniProt P03211). As to the kind of experiment: inhibition of EBV nuclear antigen 1 DNA binding – biochemical, fluorescence polarization, 1536-well, dose response (AID 2381).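 Also: fluorescence polarization of a Cy5 DNA probe bound by EBNA-1 protein.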 Details: species or system human gammaherpesvirus 4. Background: Fluorescence polarisation rises when a labelled molecule tumbles more slowly, as on binding a larger partner.

Experiment [12] addresses Lytic switch protein BZLF1 (Epstein-Barr virus (strain B95-8) (HHV-4) (Human herpesvirus 4), UniProt P03206). As to the kind of experiment: inhibition of BZLF1 ZTA DNA binding – biochemical, fluorescence polarization, Epstein-Barr virus, 1536-well, counter-screen for EBNA-1 inhibitor project, dose response (AID 2377).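 Also: fluorescence polarization of Cy5-labelled ZRE DNA probe bound by purified Zta.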 Also on record: species or system human gammaherpesvirus 4.

Experiment [13] concerns the target T4, Neuropeptide Y receptor type 1 (Homo sapiens, UniProt P25929).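 Also: HEK293 cells with a CNG channel challenged with NPY then isoproterenol; potency as antagonist that reverses NPY suppression of cAMP signal.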
T4 sequence (P25929 whole entry): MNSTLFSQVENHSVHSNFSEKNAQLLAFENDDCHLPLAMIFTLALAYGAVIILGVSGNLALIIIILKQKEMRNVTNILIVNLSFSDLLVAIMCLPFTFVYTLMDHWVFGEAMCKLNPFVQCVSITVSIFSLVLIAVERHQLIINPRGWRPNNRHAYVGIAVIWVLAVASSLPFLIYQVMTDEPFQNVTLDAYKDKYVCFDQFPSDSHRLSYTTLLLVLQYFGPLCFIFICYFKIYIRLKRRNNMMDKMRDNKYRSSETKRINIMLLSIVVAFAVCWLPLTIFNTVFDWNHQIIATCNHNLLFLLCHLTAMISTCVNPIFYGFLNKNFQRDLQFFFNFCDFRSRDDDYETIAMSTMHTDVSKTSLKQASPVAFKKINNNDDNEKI
It is filed as functional.

The target in experiment [14] is T5, Neuropeptide Y receptor type 2 (Homo sapiens, UniProt P49146).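 Also: HEK293 cells expressing the receptor and a CNG channel; stimulus was NPY near EC95 followed by isoproterenol to raise cAMP; antagonist potency measured as restoring cAMP signal that NPY suppresses.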
T5 sequence (P49146 whole entry): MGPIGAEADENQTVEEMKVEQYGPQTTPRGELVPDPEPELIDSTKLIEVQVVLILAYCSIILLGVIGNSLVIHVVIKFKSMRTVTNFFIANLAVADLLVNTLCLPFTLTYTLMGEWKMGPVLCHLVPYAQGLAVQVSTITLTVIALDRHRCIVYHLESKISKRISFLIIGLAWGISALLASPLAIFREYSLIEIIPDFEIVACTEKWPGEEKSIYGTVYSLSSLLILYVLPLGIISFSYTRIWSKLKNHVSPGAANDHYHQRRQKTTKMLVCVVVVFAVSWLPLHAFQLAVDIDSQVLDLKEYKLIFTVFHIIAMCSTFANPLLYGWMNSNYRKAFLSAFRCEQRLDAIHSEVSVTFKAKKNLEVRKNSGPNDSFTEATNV
It is filed as functional, cell-based.

The target of experiment [15] is T6, Estrogen receptor (Homo sapiens, UniProt P03372).
T6 sequence (P03372 whole entry): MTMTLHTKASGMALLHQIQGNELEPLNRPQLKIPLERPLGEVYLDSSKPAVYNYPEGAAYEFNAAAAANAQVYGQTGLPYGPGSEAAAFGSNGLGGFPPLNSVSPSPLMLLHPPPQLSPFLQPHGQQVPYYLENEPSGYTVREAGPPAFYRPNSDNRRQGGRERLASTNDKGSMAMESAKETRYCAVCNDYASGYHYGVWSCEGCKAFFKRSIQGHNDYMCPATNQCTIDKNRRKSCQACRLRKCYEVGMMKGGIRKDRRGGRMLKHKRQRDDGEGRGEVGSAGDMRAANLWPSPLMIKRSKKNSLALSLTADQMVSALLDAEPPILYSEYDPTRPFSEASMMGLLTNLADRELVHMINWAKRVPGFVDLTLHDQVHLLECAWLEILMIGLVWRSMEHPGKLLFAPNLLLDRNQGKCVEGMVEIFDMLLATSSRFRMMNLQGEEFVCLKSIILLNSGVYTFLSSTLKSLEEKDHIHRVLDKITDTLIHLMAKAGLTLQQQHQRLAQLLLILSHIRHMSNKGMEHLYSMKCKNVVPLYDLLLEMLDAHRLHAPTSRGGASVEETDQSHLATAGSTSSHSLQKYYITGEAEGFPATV
As to the kind of experiment: ERα coactivator recruitment enhancers – biochemical, TR-FRET, ERα LBD, dose response (AID 737). In general terms: In TR-FRET formats the signal depends on donor and acceptor labels being close together.

The target of experiment [16] is T7, Bcl-2-like protein 10 (Homo sapiens, UniProt Q9HD36).
T7 sequence (Q9HD36 whole entry): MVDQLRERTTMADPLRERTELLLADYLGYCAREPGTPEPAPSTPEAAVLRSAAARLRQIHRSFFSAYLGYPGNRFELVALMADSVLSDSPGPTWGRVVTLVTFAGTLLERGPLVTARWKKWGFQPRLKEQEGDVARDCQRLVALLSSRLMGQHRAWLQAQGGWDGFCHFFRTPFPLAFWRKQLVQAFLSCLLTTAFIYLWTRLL
As to the kind of experiment: Concentration-response of Bcl-B inhibitors by biochemical FP with TR3 (AID 1243). It is filed as functional.

Experiment [17] addresses Peroxisome proliferator-activated receptor gamma/Nuclear receptor coactivator 1 (Homo sapiens, UniProt P37231). Format: functional.
Experiment [18] concerns the target Peroxisome proliferator-activated receptor gamma/Nuclear receptor coactivator 2 (Homo sapiens, UniProt P37231). It is filed as functional.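 Also: agonist potency for raising coactivator recruitment to the receptor.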
Experiment [19] deals with Peroxisome proliferator-activated receptor gamma/Nuclear receptor coactivator 3 (Homo sapiens, UniProt P37231). It is filed as functional.

Active and inactive are the calls of the source.
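For AC50 in this document: cells exposed to compound for roughly 70 hours or longer before luminescence read.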

Chain of Ion channel NompC (Q7T1G6 whole entry, the tested form may be a part): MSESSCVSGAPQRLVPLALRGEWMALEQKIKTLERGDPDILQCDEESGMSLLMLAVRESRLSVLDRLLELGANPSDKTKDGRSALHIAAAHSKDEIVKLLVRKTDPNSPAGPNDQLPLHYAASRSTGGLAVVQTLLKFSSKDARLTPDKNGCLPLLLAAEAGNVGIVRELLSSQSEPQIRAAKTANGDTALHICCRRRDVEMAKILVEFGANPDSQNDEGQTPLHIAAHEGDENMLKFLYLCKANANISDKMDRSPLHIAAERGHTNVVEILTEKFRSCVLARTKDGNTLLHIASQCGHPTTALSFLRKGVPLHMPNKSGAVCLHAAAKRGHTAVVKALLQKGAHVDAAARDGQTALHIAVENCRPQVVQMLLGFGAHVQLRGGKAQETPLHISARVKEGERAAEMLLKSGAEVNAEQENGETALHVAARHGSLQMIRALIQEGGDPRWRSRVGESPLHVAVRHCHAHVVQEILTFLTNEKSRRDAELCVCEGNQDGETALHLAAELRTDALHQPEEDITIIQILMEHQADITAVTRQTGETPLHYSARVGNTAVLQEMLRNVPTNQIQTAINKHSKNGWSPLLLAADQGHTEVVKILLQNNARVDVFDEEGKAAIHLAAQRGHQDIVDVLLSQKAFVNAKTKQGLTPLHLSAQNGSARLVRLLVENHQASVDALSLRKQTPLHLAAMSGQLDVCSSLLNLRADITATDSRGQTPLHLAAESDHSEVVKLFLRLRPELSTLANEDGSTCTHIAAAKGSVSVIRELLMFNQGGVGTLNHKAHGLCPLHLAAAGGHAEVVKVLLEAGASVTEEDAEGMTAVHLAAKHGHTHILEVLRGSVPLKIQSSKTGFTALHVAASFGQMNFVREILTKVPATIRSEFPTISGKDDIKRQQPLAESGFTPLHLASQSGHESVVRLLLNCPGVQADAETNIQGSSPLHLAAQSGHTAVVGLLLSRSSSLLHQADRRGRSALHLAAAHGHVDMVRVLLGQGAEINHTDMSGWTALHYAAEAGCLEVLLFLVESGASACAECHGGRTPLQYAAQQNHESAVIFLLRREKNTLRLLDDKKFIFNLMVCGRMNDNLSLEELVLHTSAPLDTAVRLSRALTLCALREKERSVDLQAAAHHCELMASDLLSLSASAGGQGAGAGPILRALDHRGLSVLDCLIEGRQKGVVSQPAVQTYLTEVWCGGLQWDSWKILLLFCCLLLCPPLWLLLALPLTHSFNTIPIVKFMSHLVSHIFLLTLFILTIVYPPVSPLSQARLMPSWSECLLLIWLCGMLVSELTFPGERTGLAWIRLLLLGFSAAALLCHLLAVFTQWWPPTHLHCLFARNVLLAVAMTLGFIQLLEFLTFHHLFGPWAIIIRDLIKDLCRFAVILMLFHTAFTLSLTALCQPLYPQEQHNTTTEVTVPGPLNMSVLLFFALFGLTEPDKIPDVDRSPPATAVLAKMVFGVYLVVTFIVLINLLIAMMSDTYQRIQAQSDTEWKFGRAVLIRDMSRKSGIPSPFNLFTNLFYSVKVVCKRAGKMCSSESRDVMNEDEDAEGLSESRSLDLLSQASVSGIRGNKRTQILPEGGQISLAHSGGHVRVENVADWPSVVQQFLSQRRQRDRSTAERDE
Chain of Sphingosine 1-phosphate receptor 2 (O95136 whole entry): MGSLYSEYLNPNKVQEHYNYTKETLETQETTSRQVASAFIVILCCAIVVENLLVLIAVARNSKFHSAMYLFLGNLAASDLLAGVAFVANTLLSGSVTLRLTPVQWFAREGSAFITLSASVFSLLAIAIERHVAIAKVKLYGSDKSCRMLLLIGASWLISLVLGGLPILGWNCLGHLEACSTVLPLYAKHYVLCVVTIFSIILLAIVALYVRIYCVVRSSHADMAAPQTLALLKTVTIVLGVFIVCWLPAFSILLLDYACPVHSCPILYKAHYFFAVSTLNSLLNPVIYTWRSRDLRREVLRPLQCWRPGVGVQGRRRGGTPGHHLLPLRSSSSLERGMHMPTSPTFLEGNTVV
Chain of Epstein-Barr nuclear antigen 1 (P03211 whole entry): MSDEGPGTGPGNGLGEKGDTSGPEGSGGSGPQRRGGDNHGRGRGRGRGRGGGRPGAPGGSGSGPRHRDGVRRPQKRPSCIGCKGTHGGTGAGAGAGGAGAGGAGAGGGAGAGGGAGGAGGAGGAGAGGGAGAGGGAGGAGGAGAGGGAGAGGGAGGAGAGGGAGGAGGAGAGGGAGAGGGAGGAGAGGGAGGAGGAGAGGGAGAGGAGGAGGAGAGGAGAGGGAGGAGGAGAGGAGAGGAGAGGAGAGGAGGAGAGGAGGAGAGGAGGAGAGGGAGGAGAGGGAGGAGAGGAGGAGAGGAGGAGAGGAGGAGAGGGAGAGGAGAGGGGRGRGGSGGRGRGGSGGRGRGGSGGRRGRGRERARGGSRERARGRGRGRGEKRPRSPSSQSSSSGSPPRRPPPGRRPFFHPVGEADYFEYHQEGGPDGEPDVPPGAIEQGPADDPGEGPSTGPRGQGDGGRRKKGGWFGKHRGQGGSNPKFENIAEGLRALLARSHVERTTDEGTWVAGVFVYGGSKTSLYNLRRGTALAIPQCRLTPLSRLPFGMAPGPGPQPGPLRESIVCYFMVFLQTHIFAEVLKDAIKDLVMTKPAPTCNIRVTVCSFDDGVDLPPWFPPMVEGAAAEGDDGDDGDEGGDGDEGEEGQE
Chain of Mucolipin-3 (Q8TDD5 whole entry): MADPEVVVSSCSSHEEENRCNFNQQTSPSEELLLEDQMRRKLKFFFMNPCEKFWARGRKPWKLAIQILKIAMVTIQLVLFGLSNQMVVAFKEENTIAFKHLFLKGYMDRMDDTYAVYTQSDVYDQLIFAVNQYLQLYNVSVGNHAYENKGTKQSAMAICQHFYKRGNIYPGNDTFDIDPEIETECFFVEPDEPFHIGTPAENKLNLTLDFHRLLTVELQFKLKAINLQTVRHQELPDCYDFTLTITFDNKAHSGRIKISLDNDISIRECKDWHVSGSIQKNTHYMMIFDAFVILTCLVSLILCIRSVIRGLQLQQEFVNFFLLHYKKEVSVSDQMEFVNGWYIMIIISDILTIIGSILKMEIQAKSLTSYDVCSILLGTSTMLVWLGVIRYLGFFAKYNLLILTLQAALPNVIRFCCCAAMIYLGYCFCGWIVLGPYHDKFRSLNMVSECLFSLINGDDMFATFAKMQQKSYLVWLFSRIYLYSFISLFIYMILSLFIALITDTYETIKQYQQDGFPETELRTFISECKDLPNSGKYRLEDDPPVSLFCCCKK
Chain of Lytic switch protein BZLF1 (P03206 whole entry): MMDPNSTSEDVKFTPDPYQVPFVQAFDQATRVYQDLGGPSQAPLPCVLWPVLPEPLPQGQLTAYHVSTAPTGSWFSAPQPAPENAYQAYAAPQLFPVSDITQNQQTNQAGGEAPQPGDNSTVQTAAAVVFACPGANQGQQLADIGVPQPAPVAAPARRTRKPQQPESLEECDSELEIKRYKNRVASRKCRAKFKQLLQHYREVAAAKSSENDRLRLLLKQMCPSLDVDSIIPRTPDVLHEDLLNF

Broadly, the IC50 is the midpoint of a concentration-inhibition curve. Regarding `O=C(NC(=S)NNC(=O)c1cccs1)c1ccc(Br)o1`, in [1], the IC50 was 28.8 µM (active). Besides, the EC50 in [2] is 5.31 µM (active); in [3], 5.99 µM (active); in [4], 12.2 µM (active); in experiment [5] it was 5.44 µM (active).
What is called AC50 is the concentration at which the activity in the assay is half-maximal. Regarding `O=C(O)CCn1cc(/C=C/C(=O)c2ccc(Cl)cc2)c(-c2ccc(Br)cc2)n1`, the half-maximal inhibitory concentration (IC50) in experiment [6] was 22.7 µM (active). The values for the EC50 in experiment [7] and in experiment [8] were 15.5 µM (active) and 15.9 µM (active), respectively. The AC50 in experiment [9] was 5.62 µM (active).
`Cc1cc(C(=O)CN2C(=O)CCC2=O)c(C)n1Cc1ccc2c(c1)OCO2`: the EC50 in [10] is on record as > 30 µM (not active).
Regarding `COc1ccc(CNc2nc(NCc3ccc(OC)cc3)n(C(C)=O)n2)cc1`, the values for the IC50 in experiment [11] and in experiment [12] were 37.8 µM (not active) and > 111 µM (not active), respectively.
`Clc1ccc(CSc2cc3c(nn2)-c2ccccc2CC3)cc1Cl`: the concentration for half-maximal inhibition (IC50) in experiment [13] is 5.27 µM (active); in [14] it was 6.88 µM (active).
Take `O=C(NCCCCCCNC(=O)c1ccc(Br)s1)c1ccc(Br)s1`: in experiment [15], the EC50 is recorded as 12.8 µM (not active).
In the case of `Cc1ccc(C)n1-c1ccc(Cl)cc1C(=O)O`, the EC50 in experiment [16] was 0.94 µM (active).
As to `Brc1ccc(-c2csc(N/N=C/c3ccco3)n2)cc1`, the EC50 in experiment [17], in [18] and in experiment [19] was > 79.4 µM (not active) throughout.
